PubChem BioAssay (NCI)
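Grown in 96-well plates, cells were treated for 48 hours with each compound at five concentrations. Insufficient inhibition: endpoint recorded as highest concentration tested. The concentration for 50% growth inhibition is given as GI50. The concentration for full growth arrest is given as TGI.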

Experiments:
Experiment in all cases: growth of human tumour cells (NCI), 48 h
786-0 renal = system: 786-0 renal
A498 renal = system: A498 renal
ACHN renal = system: ACHN renal
BT-549 breast = system: BT-549 breast
CAKI-1 renal = system: CAKI-1 renal
CCRF-CEM leukemia = system: CCRF-CEM leukemia
COLO 205 colon = system: COLO 205 colon
DU-145 prostate = system: DU-145 prostate
EKVX NSCLC = system: EKVX NSCLC
HCC-2998 colon = system: HCC-2998 colon
HCT-15 colon = system: HCT-15 colon
HOP-92 NSCLC = system: HOP-92 NSCLC
IGROV1 ovarian = system: IGROV1 ovarian
KM12 colon = system: KM12 colon
LOX IMVI melanoma = system: LOX IMVI melanoma
MALME-3M melanoma = system: MALME-3M melanoma
MDA-MB-231 breast = system: MDA-MB-231 breast
MDA-MB-435 = system: MDA-MB-435
NCI-H226 lung = system: NCI-H226 lung
NCI-H23 lung = system: NCI-H23 lung
NCI-H460 lung = system: NCI-H460 lung
OVCAR-3 ovarian = system: OVCAR-3 ovarian
OVCAR-4 ovarian = system: OVCAR-4 ovarian
OVCAR-5 ovarian = system: OVCAR-5 ovarian
PC-3 prostate = system: PC-3 prostate
RPMI-8226 leukemia = system: RPMI-8226 leukemia
RXF 393 renal = system: RXF 393 renal
SF-268 CNS = system: SF-268 CNS
SF-295 CNS = system: SF-295 CNS
SF-539 CNS = system: SF-539 CNS
SK-MEL-2 melanoma = system: SK-MEL-2 melanoma
SK-MEL-28 melanoma = system: SK-MEL-28 melanoma
SK-MEL-5 melanoma = system: SK-MEL-5 melanoma
SN12C renal = system: SN12C renal
SNB-19 CNS = system: SNB-19 CNS
SNB-75 CNS = system: SNB-75 CNS
SR leukemia = system: SR leukemia
SW-620 colon = system: SW-620 colon
TK-10 renal = system: TK-10 renal
UACC-257 melanoma = system: UACC-257 melanoma
UACC-62 melanoma = system: UACC-62 melanoma
UO-31 renal = system: UO-31 renal
HS 578T breast = system: HS 578T breast
NCI/ADR-RES ovarian = system: NCI/ADR-RES ovarian
SK-OV-3 ovarian = system: SK-OV-3 ovarian
HL-60(TB) leukemia = system: HL-60(TB) leukemia
T-47D breast = system: T-47D breast

Question: Which results are given for O=C(CCN1CCCC1)Nc1ccc2c(Nc3ccc(Br)cc3)c3ccccc3nc2c1?
Answer: GI50 (786-0 renal): 1.5 µM; TGI (786-0 renal): 3.02 µM; GI50 (A498 renal): 1.7 µM; TGI (A498 renal): 5.82 µM; GI50 (ACHN renal): 1.23 µM; TGI (ACHN renal): 2.48 µM; GI50 (BT-549 breast): 1.44 µM; TGI (BT-549 breast): 3 µM; GI50 (CAKI-1 renal): 1.53 µM; TGI (CAKI-1 renal): 2.87 µM; GI50 (CCRF-CEM leukemia): 0.494 µM; TGI (CCRF-CEM leukemia): 2.83 µM; GI50 (COLO 205 colon): 1.85 µM; TGI (COLO 205 colon): 4.33 µM; GI50 (DU-145 prostate): 0.798 µM; TGI (DU-145 prostate): 2.07 µM; GI50 (EKVX NSCLC): 1.59 µM; TGI (EKVX NSCLC): 3.05 µM; GI50 (HCC-2998 colon): 1.26 µM; TGI (HCC-2998 colon): 2.73 µM; GI50 (HCT-15 colon): 1.16 µM; TGI (HCT-15 colon): 2.5 µM; GI50 (HOP-92 NSCLC): 1.31 µM; TGI (HOP-92 NSCLC): 2.71 µM; GI50 (IGROV1 ovarian): 1.23 µM; TGI (IGROV1 ovarian): 2.59 µM; GI50 (KM12 colon): 1.57 µM; TGI (KM12 colon): 3.29 µM; GI50 (LOX IMVI melanoma): 1 µM; TGI (LOX IMVI melanoma): 2.24 µM; GI50 (MALME-3M melanoma): 1.62 µM; TGI (MALME-3M melanoma): 3.09 µM; GI50 (MDA-MB-231 breast): 1.57 µM; TGI (MDA-MB-231 breast): 2.99 µM; GI50 (MDA-MB-435): 1.68 µM; TGI (MDA-MB-435): 3.1 µM; GI50 (NCI-H226 lung): 1.39 µM; TGI (NCI-H226 lung): 3.02 µM; GI50 (NCI-H23 lung): 1.47 µM; TGI (NCI-H23 lung): 2.92 µM; GI50 (NCI-H460 lung): 0.337 µM; TGI (NCI-H460 lung): 1.55 µM; GI50 (OVCAR-3 ovarian): 1.61 µM; TGI (OVCAR-3 ovarian): 3.11 µM; GI50 (OVCAR-4 ovarian): 1.51 µM; TGI (OVCAR-4 ovarian): 2.92 µM; GI50 (OVCAR-5 ovarian): 1.63 µM; TGI (OVCAR-5 ovarian): 3.03 µM; GI50 (PC-3 prostate): 1.4 µM; TGI (PC-3 prostate): 3.04 µM; GI50 (RPMI-8226 leukemia): 1.73 µM; TGI (RPMI-8226 leukemia): 6.07 µM; GI50 (RXF 393 renal): 1.23 µM; TGI (RXF 393 renal): 2.57 µM; GI50 (SF-268 CNS): 1.33 µM; TGI (SF-268 CNS): 2.81 µM; GI50 (SF-295 CNS): 1.59 µM; TGI (SF-295 CNS): 3.02 µM; GI50 (SF-539 CNS): 1.55 µM; TGI (SF-539 CNS): 2.95 µM; GI50 (SK-MEL-2 melanoma): 1.98 µM; TGI (SK-MEL-2 melanoma): 3.76 µM; GI50 (SK-MEL-28 melanoma): 1.63 µM; TGI (SK-MEL-28 melanoma): 3.02 µM; GI50 (SK-MEL-5 melanoma): 1.57 µM; TGI (SK-MEL-5 melanoma): 2.92 µM; GI50 (SN12C renal): 1.3 µM; TGI (SN12C renal): 2.69 µM; GI50 (SNB-19 CNS): 1.44 µM; TGI (SNB-19 CNS): 2.79 µM; GI50 (SNB-75 CNS): 1.37 µM; TGI (SNB-75 CNS): 2.68 µM; GI50 (SR leukemia): 0.288 µM; TGI (SR leukemia): 2.58 µM; GI50 (SW-620 colon): 1.24 µM; TGI (SW-620 colon): 2.64 µM; GI50 (TK-10 renal): 1.72 µM; TGI (TK-10 renal): 3.37 µM; GI50 (UACC-257 melanoma): 1.89 µM; TGI (UACC-257 melanoma): 3.7 µM; GI50 (UACC-62 melanoma): 1.64 µM; TGI (UACC-62 melanoma): 3.12 µM; GI50 (UO-31 renal): 1.33 µM; TGI (UO-31 renal): 2.61 µM

Question: Cn1cc(-c2csc(-c3cn(CCCN4CCCCC4)c4ccc(Br)cc34)n2)c2cccnc21 was tested. Which GI50 (A498 renal) did it give?
Answer: 3.69 µM

Question: And the TGI (A498 renal)?
Answer: 14 µM

Question: What about the GI50 (ACHN renal) of the same compound?
Answer: 1.65 µM

Question: And the TGI (ACHN renal)?
Answer: 3 µM

Question: What about the GI50 (DU-145 prostate) of the same compound?
Answer: 1.79 µM

Question: And the TGI (DU-145 prostate)?
Answer: 3.21 µM

Question: And the GI50 (HCC-2998 colon)?
Answer: 1.86 µM

Question: What about the TGI (HCC-2998 colon) of the same compound?
Answer: 3.61 µM

Question: What about the GI50 (HOP-92 NSCLC) of the same compound?
Answer: 1.79 µM

Question: And the TGI (HOP-92 NSCLC)?
Answer: 3.63 µM

Question: And the GI50 (HS 578T breast)?
Answer: 2.09 µM

Question: And the TGI (HS 578T breast)?
Answer: 5.41 µM

Question: And the GI50 (IGROV1 ovarian)?
Answer: 1.63 µM

Question: And the TGI (IGROV1 ovarian)?
Answer: 3.33 µM

Question: And the GI50 (KM12 colon)?
Answer: 1.89 µM

Question: And the TGI (KM12 colon)?
Answer: 3.54 µM

Question: What about the GI50 (MALME-3M melanoma) of the same compound?
Answer: 1.58 µM

Question: What about the TGI (MALME-3M melanoma) of the same compound?
Answer: 3.16 µM

Question: And the GI50 (MDA-MB-231 breast)?
Answer: 1.72 µM

Question: And the TGI (MDA-MB-231 breast)?
Answer: 3.21 µM

Question: And the GI50 (MDA-MB-435)?
Answer: 1.74 µM

Question: And the TGI (MDA-MB-435)?
Answer: 3.16 µM

Question: And the GI50 (NCI-H226 lung)?
Answer: 2.07 µM

Question: What about the TGI (NCI-H226 lung) of the same compound?
Answer: 4.84 µM

Question: What about the GI50 (NCI-H23 lung) of the same compound?
Answer: 1.79 µM

Question: And the TGI (NCI-H23 lung)?
Answer: 3.51 µM

Question: What about the GI50 (NCI-H460 lung) of the same compound?
Answer: 1.87 µM

Question: And the TGI (NCI-H460 lung)?
Answer: 3.4 µM

Question: And the GI50 (NCI/ADR-RES ovarian)?
Answer: 1.92 µM

Question: And the TGI (NCI/ADR-RES ovarian)?
Answer: 3.73 µM

Question: What about the GI50 (OVCAR-3 ovarian) of the same compound?
Answer: 1.8 µM

Question: What about the TGI (OVCAR-3 ovarian) of the same compound?
Answer: 3.38 µM

Question: And the GI50 (OVCAR-4 ovarian)?
Answer: 2.02 µM

Question: What about the TGI (OVCAR-4 ovarian) of the same compound?
Answer: 4.19 µM

Question: What about the GI50 (OVCAR-5 ovarian) of the same compound?
Answer: 1.57 µM

Question: What about the TGI (OVCAR-5 ovarian) of the same compound?
Answer: 3.01 µM

Question: And the GI50 (PC-3 prostate)?
Answer: 1.77 µM

Question: What about the TGI (PC-3 prostate) of the same compound?
Answer: 3.22 µM

Question: And the GI50 (RXF 393 renal)?
Answer: 1.64 µM

Question: And the TGI (RXF 393 renal)?
Answer: 3.19 µM

Question: What about the GI50 (SF-539 CNS) of the same compound?
Answer: 1.75 µM

Question: And the TGI (SF-539 CNS)?
Answer: 3.2 µM

Question: And the GI50 (SK-MEL-2 melanoma)?
Answer: 1.94 µM

Question: What about the TGI (SK-MEL-2 melanoma) of the same compound?
Answer: 3.74 µM

Question: What about the GI50 (SK-MEL-28 melanoma) of the same compound?
Answer: 1.71 µM

Question: And the TGI (SK-MEL-28 melanoma)?
Answer: 3.2 µM

Question: And the GI50 (SK-MEL-5 melanoma)?
Answer: 1.86 µM

Question: And the TGI (SK-MEL-5 melanoma)?
Answer: 3.41 µM

Question: And the GI50 (SK-OV-3 ovarian)?
Answer: 1.92 µM

Question: And the TGI (SK-OV-3 ovarian)?
Answer: 3.9 µM

Question: What about the GI50 (SN12C renal) of the same compound?
Answer: 1.74 µM

Question: And the TGI (SN12C renal)?
Answer: 3.31 µM

Question: And the GI50 (SNB-19 CNS)?
Answer: 1.83 µM

Question: What about the TGI (SNB-19 CNS) of the same compound?
Answer: 3.31 µM

Question: What about the GI50 (SNB-75 CNS) of the same compound?
Answer: 1.44 µM

Question: What about the TGI (SNB-75 CNS) of the same compound?
Answer: 5.8 µM

Question: And the GI50 (SW-620 colon)?
Answer: 1.82 µM

Question: What about the TGI (SW-620 colon) of the same compound?
Answer: 3.26 µM

Question: What about the GI50 (TK-10 renal) of the same compound?
Answer: 1.69 µM

Question: And the TGI (TK-10 renal)?
Answer: 3.16 µM

Question: What about the GI50 (UACC-257 melanoma) of the same compound?
Answer: 1.8 µM

Question: What about the TGI (UACC-257 melanoma) of the same compound?
Answer: 3.43 µM

Question: What about the GI50 (UACC-62 melanoma) of the same compound?
Answer: 1.78 µM

Question: And the TGI (UACC-62 melanoma)?
Answer: 3.4 µM

Question: What about the GI50 (UO-31 renal) of the same compound?
Answer: 1.51 µM

Question: And the TGI (UO-31 renal)?
Answer: 2.89 µM

Question: Which GI50 (ACHN renal) does the source give for COc1ccc(-c2ccc(-c3ccc(C(=N)N)cc3)s2)cc1Cl here?
Answer: 1.62 µM

Question: What about the TGI (ACHN renal) of the same compound?
Answer: 2.97 µM

Question: And the GI50 (DU-145 prostate)?
Answer: 1.7 µM

Question: And the TGI (DU-145 prostate)?
Answer: 3.06 µM

Question: And the GI50 (HL-60(TB) leukemia)?
Answer: 1.91 µM

Question: And the TGI (HL-60(TB) leukemia)?
Answer: 4.05 µM

Question: What about the GI50 (KM12 colon) of the same compound?
Answer: 1.75 µM

Question: What about the TGI (KM12 colon) of the same compound?
Answer: 3.13 µM

Question: And the GI50 (OVCAR-5 ovarian)?
Answer: 1.55 µM

Question: And the TGI (OVCAR-5 ovarian)?
Answer: 2.88 µM

Question: And the GI50 (SK-MEL-2 melanoma)?
Answer: 2.05 µM

Question: And the TGI (SK-MEL-2 melanoma)?
Answer: 4.2 µM

Question: And the GI50 (SK-OV-3 ovarian)?
Answer: 1.98 µM

Question: What about the TGI (SK-OV-3 ovarian) of the same compound?
Answer: 4.46 µM

Question: And the GI50 (T-47D breast)?
Answer: 1.85 µM

Question: And the TGI (T-47D breast)?
Answer: 4.33 µM
